Test results taken from patent US5506354A, “Imidazolylpiperazinyl steroids” (The Upjohn Company, priority 1992, dated 1996).
Structures can show the parent of a compound that is named as a salt.

system: arachidonic acid; experiment: Arachidonic Acid Antagonism Assay (AAAA), LD50 of sodium arachidonate; format: in vivo, Charles River male CF-1 mice; conditions: 100 mg/kg; test compound IV
Description: Since these metabolites contribute to the pathological problems associated with stroke, spinal trauma and head injury, compounds which antagonize arachidonic acid are useful in treating stroke, spinal trauma and head injury.
While not necessary to determine arachidonic acid antagonism, the above assay has been modified as follows: Charles River male CF-1 mice weighing 18-22 g are treated IV with the test compound dissolved in 1.0% Tween-80 and 0.1% hydrochloric acid in distilled water, 0.2 ml total volume. Fifteen minutes later sodium arachidonate (90% pure) in physiological (normal) saline is injected into the tail vein. The LD50 is measured using the Spearman-Karber method with a log dose interval of 0.05 (N=6). Compounds which elevate the LD50 outside of the 95% confidence interval of the control LD50 are considered to be "active".

SMILES | % of Control LD50 100 mg/kg [%]
CCN(CC)c1cc(N2CCN(C(=O)[C@@]3(O)CC[C@H]4[C@@H]5CCC6=CC(=O)CC[C@]6(C)[C@H]5CC[C@@]43C)CC2)nc(N(CC)CC)n1 [Example 57] | 124

same assay, conditions: test compound IV 15 min before sodium arachidonate; LD50 outside 95% confidence interval of control

SMILES | arachidonic acid antagonism (activity in words)
CCN(CC)c1cc(N2CCN(CC(=O)[C@@]3(O)CC[C@H]4[C@@H]5CCC6=CC(=O)C=C[C@]6(C)C5=CC[C@@]43C)CC2)nc(N(CC)CC)n1.Cl.Cl.O [Example 75, 21-[4-[2,6-bis(diethylamino)4-pyrimidinyl]-1-piperazinyl]-17α-hydroxypregna-1,4,9(11)-triene-3,20-dione dihydrochloride hydrate] | demonstrate arachidonic acid antagonism
C[C@]12CCC(=O)C=C1CC[C@@H]1[C@@H]2[C@H](O)C[C@@]2(C)[C@H]1CC[C@]2(O)C(=O)CN1CCN(c2ccc(F)cc2)CC1 [Example 29, 21-[4-(4-fluorophenyl)-1-piperazinyl]-11α,17α-dihydroxypregn-4-ene-3,20-dione dihydrochloride] | demonstrate arachidonic acid antagonism
C[C@]12C=CC(=O)C=C1CC[C@@H]1C2=CC[C@@]2(C)[C@H]1CC[C@]2(O)C(=O)CN1CCN(c2cc(N3CCCC3)nc(N3CCCC3)n2)CC1.Cl.Cl.O [Example 74, 17α-hydroxy-21-[4-[2,6-di-(1-pyrrolidinyl)-4-pyrimidinyl]-1-piperazinyl] pregna-1,4,9(11)-triene-3,20-dione dihydrochloride hydrate] | demonstrate arachidonic acid antagonism
CCN(CC)c1cc(N2CCN(CC(=O)[C@@]3(O)CC[C@H]4[C@@H]5CCC6=CC(=O)CC[C@]6(C)[C@H]5CC[C@@]43C)CC2)nc(N(CC)CC)n1 [Example 53, 21-[4-[2,6-bis(diethylamino)4-pyrimidinyl]-1-piperazinyl]-17α-hydroxypregn-4-ene-3,20-dione] | demonstrate arachidonic acid antagonism
C=CCNc1nc(NCC=C)nc(N2CCN(CC(=O)[C@@]3(O)CC[C@H]4[C@@H]5CCC6=CC(=O)CC[C@]6(C)C5=CC[C@@]43C)CC2)n1.Cl.Cl.O [Example 60, 17α-hydroxy-21-[4-[4,6-bis(2-propenylamino)-1,3,5-triazin-2-yl]-1-piperazinyl]pregna-4,9(11)-diene-3,20-dione dihydrochloride hydrate] | demonstrate arachidonic acid antagonism
C[C@]12C=CC(=O)C=C1CC[C@@H]1[C@@H]2[C@@H](O)C[C@@]2(C)[C@H]1CC[C@]2(O)C(=O)CN1CCN(c2ccccn2)CC1 [Example 25, 11.uparw.,17α-dihydroxy-21-[4-(2-pyridinyl)-1-piperazinyl]pregna-1,4-diene-3,20-dione dihydrochloride] | demonstrate arachidonic acid antagonism
C[C@]12CCC(=O)C=C1CC[C@@H]1C2=CC[C@@]2(C)[C@H]1CC[C@]2(O)C(=O)CN1CCOCC1 [Example 93, 17α-hydroxy-21-(4-morpholino)-pregna4,9(11)-diene-3,20-dione (E)-2-butanedioate (1:1) salt] | demonstrate arachidonic acid antagonism
COc1ccc(CCN(CC(=O)[C@@]2(O)CC[C@H]3[C@@H]4CCC5=CC(=O)CC[C@]5(C)C4=CC[C@@]32C)Cc2ccc(N(C)C)cc2)cc1OC [Example 51, 17α-hydroxy-21-[[2-(3,4-dimethoxyphenyl)ethyl]-4-(dimethylamino)-phenyl]methyl]amino]pregna-4,9(11)-3,20-dione hydrochloride] | demonstrate arachidonic acid antagonism
COc1cccc(N2CCN(CC(=O)[C@@]3(O)CC[C@H]4[C@@H]5CCC6=CC(=O)CC[C@]6(C)C5=CC[C@@]43C)CC2)n1.CS(=O)(=O)O [Example 22, 17α-hydroxy-21-[4-(6-methoxy-2-pyridinyl)-1-piperazinyl]pregna-4,9(11)-diene-3,20-dione monomethanesulfonate] | demonstrate arachidonic acid antagonism
CCN(CC)c1cc(N2CCN(C(=O)[C@@]3(O)CC[C@H]4[C@@H]5CCC6=CC(=O)CC[C@]6(C)[C@H]5CC[C@@]43C)CC2)nc(N(CC)CC)n1 [Example 57] | demonstrate arachidonic acid antagonism
C[C@]12CCC(=O)C=C1CC[C@@H]1C2=CC[C@@]2(C)[C@H]1CC[C@]2(O)C(=O)CN1CCN(Cc2ccccn2)CC1 [Example 54, 17α-hydroxy-21-[4-(2-pyridinylmethyl)-1-piperazinyl]-pregna-4,9(11)-diene-3,20-dione (E)-2-butenedioate 1:1 salt] | demonstrate arachidonic acid antagonism

system: angiogenesis; experiment: Chick embryo assay of Folkman (inhibition of angiogenesis / tumor growth); format: in vivo; conditions: 50 μg/10 μl in the presence of heparin
Description: According to this procedure compounds which are considered to be "active" (i.e. antiangiogenic) give an avascular zone of 4 mm or greater in some embryos when tested at 50 μg/10 μl in the presence of 50 μg/10μ of heparin.

SMILES | % of Embryos with 4 mm or Greater Avascular Zone [%] | inhibition of angiogenesis (activity in words)
CC(C)(C)CC(=O)O[C@@H]1C[C@@]2(C)[C@@H](CC[C@]2(O)C(=O)CN2CCN(c3ccccn3)CC2)[C@@H]2CCC3=CC(=O)CC[C@]3(C)[C@H]21 [Example 28, 11α,17α-Dihydroxy-21-[4-(2-pyridinyl)-1-piperazinyl]pregn-4-ene-3,20-dione 11-(3,3-dimethyl-1-butyratedihydrochloride] | 73 | –
C[C@]12CCC(=O)C=C1CC[C@@H]1[C@@H]2C(=O)C[C@@]2(C)[C@H]1CC[C@]2(O)C(=O)CN1CCN(c2ccccn2)CC1 [Example 20] | 72 | demonstrate inhibition of angiogenesis
COc1ccc(N2CCN(CC(=O)[C@@]3(O)CC[C@H]4[C@@H]5CCC6=CC(=O)CC[C@]6(C)[C@H]5[C@H](OC(=O)CC(C)(C)C)C[C@@]43C)CC2)cc1 [Example 32, 11α,17α-dihydroxy-21-[4-(4-methoxyphenyl)-1-piperazinyl]pregn-4-ene-3,20-dione 11-(3,3-dimethyl-1-butyrate) dihydrochloride] | – | demonstrate inhibition of angiogenesis
CCN(CC)c1cc(N2CCN(CC(=O)[C@@]3(O)CC[C@H]4[C@@H]5C[C@H](C)C6=CC(=O)C=C[C@]6(C)C5=CC[C@@]43C)CC2)nc(N(CC)CC)n1 [Example 63, 21-[4-[2,6-bis(diethylamino)-4-pyrimidinyl]-1-piperaz-inyl]-17α-hydroxy-6α-methylpregna-1,4,9(11)-triene-3,20-dione (E)-2-butenedioate (1:1) salt] | – | demonstrate inhibition of angiogenesis
C[C@H]1C[C@H]2[C@@H]3CC[C@H]4CC(=O)CC[C@]4(C)C3=CC[C@]2(C)[C@@]1(O)C(=O)CN1CCN(c2ccccn2)CC1.Cl.Cl.O [Example 44, 17α-hydroxy-16β-methyl-21-[4-(2-pyridinyl)-1-piperazinyl]-5α-pregn-9(11)-ene-3,20-dione dihydrochloride hydrate] | 75 | –
COc1ccc(CCNCC(=O)[C@@]2(O)CC[C@H]3[C@@H]4C[C@H](C)C5=CC(=O)C=C[C@]5(C)[C@H]4[C@@H](O)C[C@@]32C)cc1OC [Example 34, 11β,17α-dihydroxy-21-[[2-(3,4-dimethoxy-phenyl)ethyl]amino]-6α-methylpregna-1,4-diene-3,20-dione hydrochloride] | – | demonstrate inhibition of angiogenesis
COc1ccc(N2CCN(CC(=O)[C@@]3(O)CC[C@H]4[C@@H]5C[C@H](C)C6=CC(=O)C=C[C@]6(C)[C@H]5[C@@H](O)C[C@@]43C)CC2)cc1 [Example 33, 11β,17α-dihydroxy-21-[4-(4-methoxyphenyl)-1-piperazinyl]-6α-methylpregna-1,4-diene-3,20-dione dihydrochloride] | – | demonstrate inhibition of angiogenesis
C[C@]12CC[C@@H](O)C[C@H]1CC[C@@H]1[C@@H]2C(=O)C[C@@]2(C)[C@H]1CC[C@]2(O)C(=O)CN1CCN(c2ccccn2)CC1 [Example 99, 3α,17α-dihydroxy-21-[4-(2-pyridinyl)-1-piperazinyl]-5β-pregnane-11,20-dione dihydrochloride hydrate] | – | demonstrate inhibition of angiogenesis
C[C@]12CCC(=O)C=C1CC[C@@H]1C2=CC[C@@]2(C)[C@H]1CC[C@]2(O)C(=O)CN1CCN(C(=O)c2ccco2)CC1 [Example 6B, 17α-Hydroxy-21-[4-(2-furonylcarbonyl)-1-piperazinyl]pregna-4,9(11)-diene-3,20-dione] | – | demonstrate inhibition of angiogenesis
C[C@]12C[C@@H](O)[C@H]3[C@@H](CCC4=CC(=O)CC[C@@]43C)[C@@H]1CC[C@@H]2C(=O)CN1CCN(c2ccccn2)CC1.Cl.Cl [Example 36, 11α-hydroxy-21-[4-(2-pyridinyl)-1-piperazinyl]-pregn-4-ene-3,20-dione dihydrochloride] | – | demonstrate inhibition of angiogenesis
CCN(CC)c1cc(N2CCN(CC(=O)[C@@]3(O)CC[C@H]4[C@@H]5CCC6=CC(=O)CC[C@]6(C)C5=CC[C@@]43C)CC2)nc(N(CC)CC)n1 [Example 16, 17α-Hydroxy-21-[4-[2,6-bis(diethylamino)pyrimidinyl]-1-piperazinyl]pregna-4,9(11)-diene-3,20-dione dihydrochloride hydrate] | 91 | –
C[C@]12CCC(=O)C=C1CC[C@@H]1C2=CC[C@@]2(C)[C@H]1CC[C@]2(O)C(=O)CN1CCN(c2cc(N3CCCC3)nc(N3CCCC3)n2)CC1 [Example 64, 17α-hydroxy-21-[4-[2,6-bis(1-pyrrolidinyl)-4-pyrimidinyl]-1-piperazinyl]-pregna-4,9(11)-diene-3,20-dione (E)-2-butenedioate (1:1) salt] | – | demonstrate inhibition of angiogenesis
